This is an account of results in patent US12496281B2, “Compounds for prevention and treatment of hemorrhage and vasculature instability” (Abrexa Pharmaceuticals, Inc., priority 2020, dated 2025).

One assay relates to eMCAO, 4 μm blood clot. The assay can be described thus: J147 alone in embolic MCAO (eMCAO) model without tPA or reperfusion (Example 5). Type of assay: in vivo, SD rats. The note with it: J147 alone 1 mg/ml or 10 mg/ml i.v., or 30 mg/ml i.p. two hours after stroke onset; no tPA, no reperfusion; 24 hours after stroke. The protocol:
In this example, an eMCAO experiment was performed to determine if J147 alone (i.e., without administration of TPA or other thrombolytic intervention) provided any therapeutic benefit for stroke in the absence of reperfusion caused by TPA.

The subject of assay [1] is suture-type transient middle cerebral artery occlusion (MCAO) model. The assay can be described thus: Suture transient MCAO model, 2 h ischemia, reperfusion 24 h (Example 1). The format is in vivo, Sprague Dawley rats. The following applies: for infarct volume (TTC staining) relative to placebo: 24 h after reperfusion. Here is the method:
In this model, J147 was administered i.v. at doses of 1 mg/kg, 10 mg/kg and 30 mg/kg of total body weight immediately after reperfusion (i.e., about 2 hours after ischemia onset). […] Maximum volume (iv., bolus)=5 ml/kg. (ip., bolus)=10 ml/kg. […] The Bederson scale is a global neurological assessment that was developed to measure neurological impairments following stroke. Tests include forelimb flexion, resistance to lateral push and circling behavior. In this case, a Bederson grading scale of 0-5 was used to assess behavioral deficits after reperfusion. This scoring scale is a simple way to reveal basic neurological deficits.

Assay [2] concerns suture MCAO-induced ischemia followed by reperfusion. The assay can be described thus: J147 dose-response, 2-hour suture MCAO followed by reperfusion, 72 h (Example 3). Type of assay: in vivo, SD rats. The protocol:
Objective: […] Methods: […] J147 compound (1.0, 10, 30 mg/kg) and vehicle were administered at 2 hours after onset of ischemia (FIG. 5). Bederson score was examined prior to the sacrifice at 72 h after stroke. Infarct volumes in TTC-stained brain coronal sections were measured.

For a further assay, the system named is microglia (Iba-1). The assay can be described thus: Immunostaining of microglia (Iba-1) expansion after thromboembolic stroke. The format is in vivo, rats. The following applies: poststroke; delayed tPA alone or with J147; n=3 animals per group. The protocol: (§1) Methods: At the indicated time point, animals were euthanized with CO2 and transcardially perfused with 200 mL ice-cold PBS (0.01 M, pH 7.4) followed by 4% paraformaldehyde (PFA). The brains were removed and post-fixed in 4% PFA solution for overnight at 4° C. Brain samples were then cryoprotected by immersion in 10%, 20%, and 30% gradient sucrose solutions for 48 h at 4° C. respectively. After that, the brains were embedded in optimal cutting temperature (OCT) compound. Coronal sections (15 um) were cut at 0.4 to 1.4 mm posterior to bragma using a cryostat and mounted on positively charged slides. Every twentieth coronal section for a total five sections was used for immunohistochemistry. The primary antibodies: IBa-1 (1:200, Wako), MPO (1:200, Abcam), MMP9 (1:100, R&D), EBA (endothelial barrier antigen, a marker for endothelium in the vessels, 1:500, Covance), fibrinogen (1:200, Dako), thrombocyte (1:200, lifespan) and PAI-1 (1:200, Novus Biologicals) were used. […]
(§2) For quantification, the number of immunoreactive vessels were counted in the ischemic boundary zone. All immunostaining data was analyzed by an investigator blinded to experimental groups using Image Pro plus software (version 5.1, Media Cybernetics, Inc.) and data are presented as the density of immunoreactive vessels relative to the imaged area (mm2) as described. Data were expressed as mean±standard error of the mean (SEM). […]

In another assay the test system is MMP-9. The assay can be described thus: Double immunohistochemistry for MMP-9 expression in the brain after thromboembolic stroke. Type of assay: in vivo, rats. The following applies: 24 hours after stroke; tPA at 4 h alone or with J147; n=3 animals per group. The protocol:
MMPs, in particular MMP-9, play a critical role in the stroke-associated blood-brain barrier (BBB) disruption, hemorrhagic transformation and neuroinflammation after stroke. Double immunohistochemistry was performed to determine MMP-9 expression in the brain at 24 hours after stroke (FIG. 7A).
Methods: At the indicated time point, animals were euthanized with CO2 and transcardially perfused with 200 mL ice-cold PBS (0.01 M, pH 7.4) followed by 4% paraformaldehyde (PFA). The brains were removed and post-fixed in 4% PFA solution for overnight at 4° C. Brain samples were then cryoprotected by immersion in 10%, 20%, and 30% gradient sucrose solutions for 48 h at 4° C. respectively. After that, the brains were embedded in optimal cutting temperature (OCT) compound. Coronal sections (15 um) were cut at 0.4 to 1.4 mm posterior to bragma using a cryostat and mounted on positively charged slides. […]
as §2

Assay [3] relates to neutrophil (MPO) infiltration. The assay can be described thus: Immunostaining of brain neutrophil (MPO) infiltration after thromboembolic stroke. Type of assay: in vivo, rats. The following applies: poststroke; delayed tPA alone or with J147; n=3 animals per group. The protocol: as §1, §2
For assay [4], the system named is platelet-leukocyte aggregates. The assay can be described thus: Flow cytometry of platelet-leukocyte aggregates in whole blood after stroke. Type of assay: in vivo. The note with it: whole blood at 24 hours after ischemia onset; vs saline-treated stroke rats; n=3 rats per group. Here is the method:
(§3) Elevated platelet activation and platelet-leukocyte interaction contribute importantly to pro-inflammatory and thrombotic events during ischemia-reperfusion injury after stroke. We used flow cytometry to analyze platelet activation and platelet-leukocyte aggregates in whole blood at 24 hours after ischemia onset (FIG. 9A).
(§4) Methods: Blood was drawn into a heparinized capillary tube via the retro-orbital plexus at 24 h after stroke. Whole blood was diluted 1:10 with Flow Cytometry Staining Buffer (eBioscience) containing rat Fc block anti-rat CD32. For evaluation of platelet activation, sample was co-stained with the FITC mouse anti-rat CD42d (1:200, RPM.4) for platelets and PE/Cy7 mouse anti-rat CD62P (1:100, RMP-1) for P-selectin expression. For detection of platelet-leukocyte aggregates (PLA) formation, samples were co-stained with FITC mouse anti-rat CD42d (1:200, RPM.4), PE mouse anti-rat granulocytes (1:100, RP-1), APC mouse anti-rat CD11b (1:50, WT.5) and PE/Cy7 mouse anti-rat CD45 (1:100, OX-1). Isotype-matched control antibodies were used to differentiate non-specific background signal from specific antibody signals. The samples were analyzed on the BD Accuri™ C6 flow cytometer.
For orientation: In flow cytometry, cells or beads pass a laser one at a time.

A further assay has as its system platelets. The assay can be described thus: Double immunofluorescence of platelet (thrombocyte) accumulation in brain microvessels. Type of assay: in vivo. The note with it: stroke rats; delayed tPA alone or with J147. Here is the method: as §1, §2
In assay [5] the test system is thromboembolic middle cerebral artery occlusion (MCAO). The experiment in a line: J147+tPA expanded study: infarct volume, intracerebral hemorrhage, mortality (Example 4A). The format is in vivo, SD rats. Here is the method: Objective: To determine whether J147 can prevent tPA-associated brain hemorrhage and extend the treatment time window of tPA in a clinically relevant thromboembolic stroke model in rats. • J147 compound: Stock solution: 60 mg/ml DMSO, in 60 ul/vial, stored at −20° C. • Working solution: 3 mg/ml in 5% DMSO, 70% PEG200 and 25% normal saline, prepared prior to injection. • One vial stock solution was warmed at 37° C. and mixed with 1140 ul sterilized solution (PEG200: saline, 2.8:1). • Recombinant human tPA (Alteplase, 2.2 mg/vial): Reconstituted with 1.1 ml water (2 mg/ml). 10 mg/kg, 10% bonus injection, 90%30 min. via mini pump. A. Infarct Volume and Intracerebral Hemorrhage
Methods: Male SD rats (280-300 g) were subjected to thromboembolic middle cerebral artery occlusion (MCAO) and treated with saline at 4 hours, tPA (tissue-type plasminogen activator; 10 mg/kg, IV) at 4 hours, and combined J147 (10 mg/kg, IV) plus tPA at 4 hours after onset of ischemia. Bederson score was examined prior to the sacrifice at 72 h after stroke. Infarct volumes, brain hemorrhage, and animal mortality were measured.

Another assay concerns fibrin/fibrinogen. The experiment in a line: Double immunofluorescence of intravascular fibrin/fibrinogen deposition in brain microvessels. The format is in vivo. The note with it: stroke rats; delayed tPA alone or with J147. The protocol:
as §1, §2

The test system of assay [6] is platelet P-selectin (CD62P). The assay can be described thus: Flow cytometry of platelet activation (P-selectin) in whole blood after stroke. The format is in vivo. The following applies: whole blood at 24 hours after ischemia onset; vs saline-treated stroke rats. The protocol: as §3, §4
[7] abbreviates: J147 1.0, 10, 30 mg/kg at 2 hours after onset of ischemia, 72 h after stroke, dose-dependent, vs vehicle.
The mark [8] stands for this setting: tPA 10 mg/kg IV at 4 hours, alone or with J147 10 mg/kg IV, 72 h after stroke.

As for `COc1cccc(/C=N/N(C(=O)C(F)(F)F)c2ccc(C)cc2C)c1` [Compound J147], the “protection from stroke (infarct volume, TTC staining)” value in the assay on eMCAO, 4 μm blood clot was “fails to provide any significant protection”. For the same molecule, the “infarct volume (TTC staining) relative to placebo” value in assay [1] (1 mg/kg J147 iv) is on record as “insignificant reduction”; in assay [1] (10 mg/kg J147 iv) it was “large reduction”; in assay [1] (J147 intraperitoneally), “modest reduction”. In [1] (iv, immediately after reperfusion, doses tested 1, 10 and 30 mg/kg), this molecule had an optimal effective dose of 10 mg/kg. Besides, the infarct volumes entry in [2] (setting [7]) is reported as “significantly reduced”. Also, the “neurological deficit (Bederson score)” value in assay [2] (setting [7]) is recorded as “significantly reduced”. The molecule also came in with an effective optimal dose in [2] (treatment of acute ischemic stroke in rats, doses tested 1.0, 10, 30 mg/kg) of 10 mg/kg.

With “tPA: Recombinant human tPA (Alteplase), tissue-type plasminogen activator; thrombolytic approved for the treatment of stroke”, the “microglia expansion (number of Iba-1-positive cells)” value in the assay with microglia (Iba-1) was “no significant effect”. Also, the “MMP-9 expression on individual cells and brain microvessels” value with MMP-9 is “further increased”. Moreover, in assay [3], the “neutrophil (MPO positive cells) infiltration into the brain parenchyma” value is listed as “further augmented”. The “platelet-granulocyte (platelet-neutrophil) aggregates” value in [4] is “no additional effect”. Moreover, the “platelets deposited in downstream microvessels” value in the assay on platelets is reported as “markedly increased”. In assay [5] (setting [8]), the “brain hemorrhage / hemorrhagic transformation” value is recorded as “worsened” and the “brain infarction / infarct volume” value was “did not decrease”. Further, the mortality rate in [5] (treatment at 4 h after onset of ischemia, log-rank test, saline 25%) came to 32%. Also, in assay [5] (treatment at 4 h after onset of ischemia, tPA n = 22, J147 plus tPA n = 17, saline 3 of 12), the “Death (number of rats)” value is reported as 7. Further, the “fibrin/fibrinogen deposited in downstream microvessels” value in the assay with fibrin/fibrinogen is on record as “markedly increased”. The “platelet activation (platelet P-selectin expression)” value in assay [6] is recorded as “no additional effect”.
